pEC50, pIC50: −log10 of the molar value. Several values for one entry are separate records, joined by “and”; a condition that tells them apart may be missing. Identical values can stand only once. Like-named read-outs stand apart in the source and are kept apart here.
Legend:
[1] = tested on: head and neck, anal, and ovarian cancer; conditions: cited from earlier work
HCT116 = HCT116 cell line; external data from prior publications; cited from earlier work
OVCAR3 = assay: Cell viability, sensitivity to prexasertib (Example 1); format: cell-based, human; conditions: OVCAR3 cell line
Experimental: (§1) Predicted response to prexasertib was compared to experimentally measured sensitivity to prexasertib. […] EC50 values of less than or equal to 1 μM were considered to be actual responders, while values of greater than 1 μM were considered to be actual non-responders.

BT549 = assay: as above; format: cell-based, human; conditions: BT549 cell line
Experimental: as §1

PC3 = assay: Cell Titer Glo 2.0 viability, prexasertib alone or with gemcitabine, three days (Example 11); format: cell-based; conditions: Homo sapiens, PC-3, 72 h, gemcitabine 0.53 nM, read-out: Prexasertib Relative IC50
Experimental: (§2) The present Example provides experimental evidence that treatment with gemcitabine sensitizes human cancer cell lines to treatment with prexasertib. A panel of human cancer cell lines were treated with various concentrations of prexasertib (0.17, 0.51, 1.5, 4.6, 13.7, 31.2, 123.5, 370.4, 1111, 3333, and 10000 nM) alone or in combination with various low dose concentrations of gemcitabine (0.53 and 2.7 nM). The panel of cell lines included ovarian, endometrial, bladder, breast, and prostate cancer cell lines. Two ovarian cancer cell lines (OVCAR3 and OV90) were used to generate acquired prexasertib resistant cells. For both cell lines, the parental cells (OVCAR3-P and OV90-P) and acquired prexasertib resistant cells (OVCAR3-R and OV90-R) were tested. Additionally, the panel included three cell lines that are naïve resistant to prexasertib (SW780, T47D, and PC3). After three days of treatment, cell viability relative to DMSO control was assessed using Cell Titer Glo 2.0 (Promega).
(§3) To determine whether gemcitabine and prexasertib acts synergistically, additively, or potentially antagonistically, the panel of human cancer cell lines were treated with various concentrations of prexasertib (0.17, 0.51, 1.5, 4.6, 13.7, 31.2, 123.5, 370.4, 1111, 3333, and 10000 nM) in combination with various concentrations of gemcitabine (1, 3, 13, 67, 333, 1667, 8333 nM). After three days treatment, cell viability relative to DMSO control was assessed using Cell Titer Glo 2.0 (Promega). Drug combination effect was evaluated using SynergyFinder 2.0, see Ianevski et al., Nucleic Acids Res., gkaa216 (2020), and is presented in Table 15 as a Bliss synergy score for each cell line. Bliss synergy scores greater than 10 are indicative of a synergistic effect between prexasertib and gemcitabine, while scores between 10 and −10 are indicative of an additive effect and scores less than −10 are indicative of an antagonistic effect. […] Taken together, the results of this Example support use of a combination of prexasertib and gemcitabine (e.g., low doses of gemcitabine) for treatment of predicted non-responders to prexasertib treatment.

OVCAR3-R = assay: as above; format: cell-based; conditions: Homo sapiens, 72 h
Experimental: as §2, §3

AN3CA = assay: as above; format: cell-based; conditions: Homo sapiens, AN3-CA, 72 h
Experimental: as §2, §3

OVCAR3-P = assay: as above; format: cell-based; conditions: Homo sapiens, 72 h
Experimental: as §2, §3

KLE = assay: as above; format: cell-based; conditions: Homo sapiens, 72 h, read-out: Prexasertib Relative IC50
Experimental: as §2, §3

T47D = assay: as above; format: cell-based; conditions: Homo sapiens, 72 h, gemcitabine 0.53 nM, read-out: Prexasertib Relative IC50
Experimental: as §2, §3

SW780 = assay: as above; format: cell-based; conditions: Homo sapiens, 72 h, gemcitabine 0.53 nM
Experimental: as §2, §3

Head and Neck, SCC = conditions: cited from earlier work
[2] = tested on: metastatic high-grade serous ovarian cancer; assay: Observed treatment outcome in phase II clinical trials, patients with frozen pre-treatment biopsies (Example 4); format: in vivo, human; set-up: key to Treatment Result (RECIST): partial response (PR); stable disease (SD); progressive disease (PD)
Experimental: The study was conducted in a blinded, prospectively designed manner on pretreatment tumor biopsies collected from ovarian cancer patients treated in phase 2 trials at the NCI in the past with prexasertib, including a previous single center phase II clinical trial for prexasertib in metastatic high-grade serous ovarian cancer; see Lee et al., Lancet Oncol. 19(2): 207-215 (2018). These past studies were unable to identify predictive biomarkers. To evaluate whether a provided Response-Predictive Signature can successfully predict patient responders, frozen, de-identified sections of pre-treatment tumor biopsies from the phase II clinical trials were obtained. Moreover, they were received without any knowledge about clinical annotation, including response to prexasertib. Each patient tumor biopsy sample was stained using antibodies against three biomarkers and imaged using immunofluorescence microscopy. Biomarker 1 (BM1) was Ser296 phosphorylated Chk1. Biomarker 2 (BM2) was Ser473 phosphorylated Kap1. Biomarker 3 (BM3) was total cyclin E1. Unless otherwise indicated, these were the biomarkers used throughout the Examples.
To evaluate whether the provided Response-Predictive Signature can predict response to prexasertib treatment, the predicted response for each patient was compared to the observed treatment outcomes in the previously conducted phase II clinical trials for the patient (Table 6 and FIGS. 5, 12, and 13). This was done in a blinded manner, with quantitative biomarker scores and clinical annotation provided to a third-party biostatistician and the principal investigator, respectively. Observed treatment outcomes were classified according to RECIST criteria as partial response (PR), stable disease (SD), or progressive disease (PD). […] Additionally, the observed treatment outcome was quantified based on the fractional change in tumor volume after treatment and progression free survival (PFS) (Table 6 and FIGS. 5, 12, and 13).

[3] = based on measured sensitivity (EC50)
[4] = gemcitabine 0.53 nM, read-out: Prexasertib Absolute IC50
[5] = gemcitabine 0.53 nM, read-out: Prexasertib Relative IC50
[6] = gemcitabine 2.7 nM, read-out: Prexasertib Absolute IC50
[7] = gemcitabine 2.7 nM, read-out: Prexasertib Relative IC50
[8] = gemcitabine 0 nM, read-out: Prexasertib Absolute IC50
[9] = gemcitabine 0 nM, read-out: Prexasertib Relative IC50
[10] = individual patients predicted non-responder (NR)
[11] = individual patients predicted responder (R)

COc1cccc(OCCCN)c1-c1cc(Nc2cnc(C#N)cn2)n[nH]1 [prexasertib, 5-(5-(2-(3-aminopropoxy)-6-methoxyphenyl)-1H-pyrazol-3-ylamino)pyrazine-2-carbonitrile]
Response rates in clinical trials ([1]; across cancers, including head and neck, anal, and ovarian cancer, single agent): 5-20% | Side effects ([1]; patients, reversible, common, hematological, mechanism-based myelosuppression): neutropenia, thrombocytopenia, and anemia | pEC50 (HCT116): 7.00 | pEC50 (OVCAR3; Homo sapiens, OVCAR-3, reduction in cell viability by 50%): 7.72 | Actual response status (OVCAR3; [3]): R (EC50 values of less than or equal to 1 μM were considered to be actual responders) | Actual response status (BT549; [3]): R (EC50 values of less than or equal to 1 μM were considered to be actual responders) | pEC50 (BT549; Homo sapiens, BT-549, reduction in cell viability by 50%): 7.68 | pIC50 (PC3): 9.82 | pIC50 (OVCAR3-R; [4]): 6.97 | pIC50 (OVCAR3-R; [5]): 7.52 | pIC50 (OVCAR3-R; [6]): 8.21 | pIC50 (OVCAR3-R; [7]): 8.40 | pIC50 (AN3CA; [8]): 8.66 | pIC50 (AN3CA; [9]): 8.82 | pIC50 (AN3CA; [4]): 9.52 | pIC50 (AN3CA; [5]): 9.70 | pIC50 (OVCAR3-P; [8]): 7.80 | pIC50 (OVCAR3-P; [9]): 8.10 | pIC50 (OVCAR3-P; [4]): 8.52 | pIC50 (OVCAR3-P; [5]): 8.85 | pIC50 (OVCAR3-P; [6]): 9.70 | pIC50 (OVCAR3-P; [7]): 10.00 | pIC50 (KLE; gemcitabine 0 nM): 9.44 | pIC50 (KLE; gemcitabine 0.53 nM): 10.70 | pIC50 (T47D): 9.66 | pIC50 (SW780; read-out: Prexasertib Absolute IC50): 9.52 | pIC50 (SW780; read-out: Prexasertib Relative IC50): 10.22 | ORR in trials (Head and Neck, SCC): 5% | FracShrink (fractional change in tumor volume) [2, 10]: 0.109 and 0 and −0.26 and −0.1 and 1.04 and 0.02 and 0.085 and −0.04 | PFS [2, 10]: 70 days and 56 days and 223 days and 104 days and 63 days and 33 days and 62 days and 112 days | Treatment Result (RECIST) [2, 10]: SD (4×) and PD (4×) | FracShrink (fractional change in tumor volume) [2, 11]: −0.36 and −0.345 and −0.46 and −0.33 and −0.27 and −0.01 (2×) and −0.23 and −0.76 and −0.14 and −0.02 and −0.11 and −0.5 and −0.495 and −0.194 | PFS [2, 11]: 101 days and 402 days and 286 days and 211 days and 392 days and 62 days and 510 days and 602 days and 238 days and 258 days and 140 days and 293 days and 230 days and 112 days and 123 days | Treatment Result (RECIST) [2, 11]: PR (7×) and SD (7×) and PD
